≈ marks a conversion by molar mass, not a printed value.
Assays:
Type in all cases: cell-based
[1] = system: Mycoplasma bovis (Myc bov); experiment: microbe, parasite or virus in culture; conditions: Mycoplasmopsis bovis, read-out: MIC Myc bov
[2] = system: Staphylococcus aureus, resistant (Sta aur r); experiment: microbe, parasite or virus in culture; conditions: read-out: MIC Sta aur r
[3] = system: Streptococcus uberis (Str ube); experiment: microbe, parasite or virus in culture; conditions: read-out: MIC Str ube
[4] = system: Clostridium perfringens (Clo per); experiment: microbe, parasite or virus in culture; conditions: read-out: MIC Clo per
[5] = system: Mannheimia haemolytica, susceptible (Man hae s); experiment: MIC determination by microdilution in liquid medium; conditions: susceptible strain
[6] = system: Staphylococcus aureus, susceptible (Sta aur s); experiment: microbe, parasite or virus in culture; conditions: read-out: MIC Sta aur s
[7] = system: Bordetella bronchiseptica (Bor bron); experiment: microbe, parasite or virus in culture; conditions: read-out: MIC Bor bron
[8] = system: Escherichia coli (E coli); experiment: microbe, parasite or virus in culture; conditions: read-out: MIC E coli
[9] = system: Pseudomonas aeruginosa, susceptible (Pse aer s); experiment: microbe, parasite or virus in culture; conditions: read-out: MIC Pse aer s
[10] = system: Pseudomonas aeruginosa, resistant (Pse aer r); experiment: microbe, parasite or virus in culture; conditions: read-out: MIC Pse aer r
[11] = system: Mannheimia haemolytica, resistant (Man hae r); experiment: MIC determination by microdilution in liquid medium; conditions: resistant strain

| SMILES | MIC [1] | MIC [2] | MIC [3] | MIC [4] | MIC [5] | MIC [6] | MIC [7] | MIC [8] | MIC [9] | MIC [10] | MIC [11] |
| --- | --- | --- | --- | --- | --- | --- | --- | --- | --- | --- | --- |
| CN1COc2c(N3CCN(C(=O)c4cccn4C)CC3)c(F)cc3c(=O)c(C(=O)O)cn1c23 [Example 1, 8-Fluoro-3-methyl-9-[4-(1-methyl-1H-pyrrole-2-carbonyl)-piperazin-1-yl]-6-oxo-2,3-dihydro-6H-1-oxa-3,3a-diaza-phenalene-5-carboxylic acid] | 0.5 µg/mL (≈ 1.1 µM) | 16 µg/mL (≈ 35.1 µM) | 2 µg/mL (≈ 4.39 µM) | 0.5 µg/mL (≈ 1.1 µM) | 1 µg/mL (≈ 2.2 µM) | 0.25 µg/mL (≈ 0.549 µM) | > 1 µg/mL | > 1 µg/mL | – | – | – |
| CN1COc2c(N3CCN(C(=O)c4cscn4)CC3)c(F)cc3c(=O)c(C(=O)O)cn1c23 [Example 2] | 1 µg/mL (≈ 2.18 µM) | 8 µg/mL (≈ 17.4 µM) | 2 µg/mL (≈ 4.35 µM) | 0.25 µg/mL (≈ 0.544 µM) | 0.25 µg/mL (≈ 0.544 µM) | 0.12 µg/mL (≈ 0.261 µM) | > 1 µg/mL | > 1 µg/mL | – | – | – |
| Cc1ncsc1C(=O)N1CCN(c2c(F)cc3c(=O)c(C(=O)O)cn4c3c2OCN4C)CC1 [Example 3, 8-Fluoro-3-methyl-9-[4-(4-methyl-thiazole-5-carbonyl)-piperazin-1-yl]-6-oxo-2,3-dihydro-6H-1-oxa-3,3a-diaza-phenalene-5-carboxylic acid] | 2 µg/mL (≈ 4.22 µM) | 16 µg/mL (≈ 33.8 µM) | 1 µg/mL (≈ 2.11 µM) | 0.5 µg/mL (≈ 1.06 µM) | 0.5 µg/mL (≈ 1.06 µM) | 0.25 µg/mL (≈ 0.528 µM) | 2 µg/mL (≈ 4.22 µM) | > 1 µg/mL | – | – | – |
| CN1COc2c(N3CCN(C(=O)c4cccs4)CC3)c(F)cc3c(=O)c(C(=O)O)cn1c23 [Example 4, 8-Fluoro-3-methyl-6-oxo-9-[4-(thiophene-2-carbonyl)-piperazin-1-yl]-2,3-dihydro-6H-1-oxa-3,3a-diaza-phenalene-5-carboxylic acid] | 0.5 µg/mL (≈ 1.09 µM) | 4 µg/mL (≈ 8.72 µM) | 0.5 µg/mL (≈ 1.09 µM) | 0.25 µg/mL (≈ 0.545 µM) | 0.25 µg/mL (≈ 0.545 µM) | 0.06 µg/mL (≈ 0.131 µM) | 2 µg/mL (≈ 4.36 µM) | > 1 µg/mL | – | – | – |
| CN1COc2c(N3CCN(C(=O)c4ccco4)CC3)c(F)cc3c(=O)c(C(=O)O)cn1c23 [Example 5, 8-Fluoro-9-[4-(furan-2-carbonyl)-piperazin-1-yl]-3-methyl-6-oxo-Z 3-dihydro-6H-1-oxa-3,3a-diaza-phenalene-5-carboxylic acid] | 0.5 µg/mL (≈ 1.13 µM) | 4 µg/mL (≈ 9.04 µM) | 1 µg/mL (≈ 2.26 µM) | < 0.03 µg/mL | 0.25 µg/mL (≈ 0.565 µM) | 0.06 µg/mL (≈ 0.136 µM) | > 1 µg/mL | 1 µg/mL (≈ 2.26 µM) | > 1 µg/mL | – | – |
| CN1COc2c(N3CCN4CCCCC4C3)c(F)cc3c(=O)c(C(=O)O)cn1c23 (stereo not shown) [Example 6, 8-Fluoro-3-methyl-9-(octahydro-pyrido[1,2-a]pyrazin-2-yl)-6-oxo-2,3-dihydro-6H-1-oxa-3,3a-diaza-phenalene-5-carboxylic acid] | 1 µg/mL (≈ 2.48 µM) | 16 µg/mL (≈ 39.8 µM) | 1 µg/mL (≈ 2.48 µM) | 0.5 µg/mL (≈ 1.24 µM) | 0.06 µg/mL (≈ 0.149 µM) | 0.25 µg/mL (≈ 0.621 µM) | 1 µg/mL (≈ 2.48 µM) | 0.12 µg/mL (≈ 0.298 µM) | 2 µg/mL (≈ 4.97 µM) | 32 µg/mL (≈ 79.5 µM) | 16 µg/mL (≈ 39.8 µM) |
| CN1COc2c(N3CCN4CCCC4C3)c(F)cc3c(=O)c(C(=O)O)cn1c23 (stereo not shown) [Example 7, 8-Fluoro-9-(hexahydro-pyrrolo[1,2-a]pyrazin-2-yl)-3-methyl-6-oxo-2,3-dihydro-6H-1-oxa-3,3a-diaza-phenalene-5-carboxylic acid] | 1 µg/mL (≈ 2.57 µM) | 16 µg/mL (≈ 41.2 µM) | 0.5 µg/mL (≈ 1.29 µM) | 0.25 µg/mL (≈ 0.644 µM) | 0.03 µg/mL (≈ 0.0772 µM) | 0.25 µg/mL (≈ 0.644 µM) | 0.5 µg/mL (≈ 1.29 µM) | 0.06 µg/mL (≈ 0.154 µM) | 1 µg/mL (≈ 2.57 µM) | 8 µg/mL (≈ 20.6 µM) | 4 µg/mL (≈ 10.3 µM) |
| CN1COc2c(N3CCN4CCC[C@H]4C3)c(F)cc3c(=O)c(C(=O)O)cn1c23 [Example 8, 8-Fluoro-9-(S)-hexahydro-pyrrolo[1,2-a]pyrazin-2-yl-3-methyl-6-oxo-2,3-dihydro-6H-1-oxa-3,3a-diaza-phenalene-5-carboxylic acid] | 1 µg/mL (≈ 2.57 µM) | 16 µg/mL (≈ 41.2 µM) | 0.5 µg/mL (≈ 1.29 µM) | 0.25 µg/mL (≈ 0.644 µM) | 0.03 µg/mL (≈ 0.0772 µM) | 0.25 µg/mL (≈ 0.644 µM) | 0.5 µg/mL (≈ 1.29 µM) | 0.03 µg/mL (≈ 0.0772 µM) | 0.5 µg/mL (≈ 1.29 µM) | 8 µg/mL (≈ 20.6 µM) | 8 µg/mL (≈ 20.6 µM) |
| CN1COc2c(N3CCN4CCC[C@@H]4C3)c(F)cc3c(=O)c(C(=O)O)cn1c23 [Example 9, 8-Fluoro-9-(R)-hexahydro-pyrrolo[1,2-a]pyrazin-2-yl-3-methyl-6-oxo-2,3-dihydro-6H-1-oxa-3,3a-diaza-phenalene-5-carboxylic acid] | 0.5 µg/mL (≈ 1.29 µM) | 8 µg/mL (≈ 20.6 µM) | 0.5 µg/mL (≈ 1.29 µM) | 0.5 µg/mL (≈ 1.29 µM) | 0.03 µg/mL (≈ 0.0772 µM) | 0.12 µg/mL (≈ 0.309 µM) | 0.25 µg/mL (≈ 0.644 µM) | 0.03 µg/mL (≈ 0.0772 µM) | 0.5 µg/mL (≈ 1.29 µM) | 8 µg/mL (≈ 20.6 µM) | 4 µg/mL (≈ 10.3 µM) |
